Key:
[1] = Liquid; for mass density: 298.15 K, 101.33 kPa; for vapor or sublimation pressure: Ebulliometric method (Recirculating still)
[2] = excess molar enthalpy (molar enthalpy of mixing); xn = mol fraction of the nth substance listed; conditions: 101 kPa, Liquid, Flow calorimetry

ClCCCl [1,2-dichloroethane]
Conditions | mass density [kg/m3]
[1] | 1245.6

Conditions | vapor or sublimation pressure [kPa]
[1], 313.15 K | 20.75

ClCCCl [1,2-dichloroethane] + CN1CCCC1=O
excess molar enthalpy [kJ/mol], [2]
Conditions | 298.15 K | 308.15 K
x2 = 0.057 | -0.228 | –
x2 = 0.058 | – | -0.242
x2 = 0.105 | -0.466 | –
x2 = 0.107 | – | -0.474
x2 = 0.203 | -0.827 | –
x2 = 0.207 | – | -0.844
x2 = 0.301 | -1.098 | –
x2 = 0.307 | – | -1.113
x2 = 0.4 | -1.234 | –
x2 = 0.407 | – | -1.249
x2 = 0.5 | -1.264 | –
x2 = 0.507 | – | -1.273
x2 = 0.601 | -1.182 | –
x2 = 0.607 | – | -1.187
x2 = 0.702 | -0.994 | –
x2 = 0.708 | – | -0.994
x2 = 0.805 | -0.732 | –
x2 = 0.808 | – | -0.73
x2 = 0.909 | -0.391 | -0.388
x2 = 0.95 | – | -0.219
x2 = 0.961 | -0.181 | –
x2 = 0.97 | – | -0.144

ClCCCCCl [1,4-dichlorobutane]
Conditions | mass density [kg/m3]
[1] | 1133.63

Conditions | vapor or sublimation pressure [kPa]
[1], 323.15 K | 2.205

ClCCCCCl [1,4-dichlorobutane] + CN1CCCC1=O
[2]
Conditions | excess molar enthalpy [kJ/mol]
298.15 K, x2 = 0.064 | -0.126
298.15 K, x2 = 0.113 | -0.224
298.15 K, x2 = 0.21 | -0.406
298.15 K, x2 = 0.308 | -0.548
298.15 K, x2 = 0.406 | -0.638
298.15 K, x2 = 0.505 | -0.678
298.15 K, x2 = 0.604 | -0.663
298.15 K, x2 = 0.703 | -0.583
298.15 K, x2 = 0.803 | -0.449
298.15 K, x2 = 0.903 | -0.253
298.15 K, x2 = 0.954 | -0.134
308.15 K, x2 = 0.06 | -0.117
308.15 K, x2 = 0.109 | -0.219
308.15 K, x2 = 0.207 | -0.394
308.15 K, x2 = 0.305 | -0.525
308.15 K, x2 = 0.403 | -0.615
308.15 K, x2 = 0.501 | -0.653
308.15 K, x2 = 0.599 | -0.636
308.15 K, x2 = 0.698 | -0.563
308.15 K, x2 = 0.797 | -0.431
308.15 K, x2 = 0.895 | -0.245
308.15 K, x2 = 0.945 | -0.123
308.15 K, x2 = 0.964 | -0.079

ClCCCCCCCl [1,6-dichlorohexane]
Conditions | mass density [kg/m3]
[1] | 1063.7

ClCCCCCCCl [1,6-dichlorohexane] + CN1CCCC1=O
excess molar enthalpy [kJ/mol], [2]
Conditions | 298.15 K | 308.15 K
x2 = 0.041 | – | -0.023
x2 = 0.06 | – | -0.033
x2 = 0.068 | -0.045 | –
x2 = 0.109 | – | -0.062
x2 = 0.116 | -0.08 | –
x2 = 0.207 | – | -0.102
x2 = 0.212 | -0.13 | –
x2 = 0.305 | – | -0.136
x2 = 0.309 | -0.169 | –
x2 = 0.403 | – | -0.155
x2 = 0.405 | -0.191 | –
x2 = 0.502 | – | -0.162
x2 = 0.503 | -0.2 | –
x2 = 0.6 | -0.191 | -0.152
x2 = 0.699 | -0.165 | -0.134
x2 = 0.797 | -0.123 | –
x2 = 0.799 | – | -0.101
x2 = 0.896 | -0.065 | –
x2 = 0.898 | – | -0.053
x2 = 0.946 | -0.032 | –
x2 = 0.948 | – | -0.025
x2 = 0.968 | – | -0.014

CCCCCl [1-chlorobutane]
Conditions | mass density [kg/m3]
[1] | 880.72

Conditions | vapor or sublimation pressure [kPa]
[1], 313.15 K | 25.72

CCCCCl [1-chlorobutane] + CN1CCCC1=O
[2]
Conditions | excess molar enthalpy [kJ/mol]
298.15 K, x2 = 0.063 | 0.019
298.15 K, x2 = 0.113 | 0.041
298.15 K, x2 = 0.213 | 0.081
298.15 K, x2 = 0.312 | 0.113
298.15 K, x2 = 0.411 | 0.137
298.15 K, x2 = 0.51 | 0.152
298.15 K, x2 = 0.608 | 0.155
298.15 K, x2 = 0.706 | 0.145
298.15 K, x2 = 0.804 | 0.119
298.15 K, x2 = 0.901 | 0.07
298.15 K, x2 = 0.949 | 0.038
308.15 K, x2 = 0.06 | 0.034
308.15 K, x2 = 0.11 | 0.064
308.15 K, x2 = 0.208 | 0.115
308.15 K, x2 = 0.307 | 0.152
308.15 K, x2 = 0.406 | 0.176
308.15 K, x2 = 0.504 | 0.191
308.15 K, x2 = 0.603 | 0.191
308.15 K, x2 = 0.701 | 0.176
308.15 K, x2 = 0.799 | 0.142
308.15 K, x2 = 0.897 | 0.083
308.15 K, x2 = 0.946 | 0.046
308.15 K, x2 = 0.965 | 0.025

CCCCCCCl [1-chlorohexane]
Conditions | mass density [kg/m3]
[1] | 873.21

Conditions | vapor or sublimation pressure [kPa]
[1], 313.15 K | 2.857

CCCCCCCl [1-chlorohexane] + CN1CCCC1=O
excess molar enthalpy [kJ/mol], [2]
Conditions | 298.15 K | 308.15 K
x2 = 0.062 | – | 0.069
x2 = 0.064 | 0.053 | –
x2 = 0.111 | – | 0.146
x2 = 0.113 | 0.12 | –
x2 = 0.208 | – | 0.273
x2 = 0.21 | 0.232 | –
x2 = 0.306 | – | 0.373
x2 = 0.308 | 0.324 | –
x2 = 0.404 | – | 0.437
x2 = 0.406 | 0.382 | –
x2 = 0.502 | – | 0.469
x2 = 0.503 | 0.416 | –
x2 = 0.601 | 0.419 | 0.469
x2 = 0.699 | 0.389 | 0.433
x2 = 0.797 | 0.319 | –
x2 = 0.798 | – | 0.352
x2 = 0.895 | 0.195 | –
x2 = 0.897 | – | 0.212
x2 = 0.944 | 0.111 | –
x2 = 0.947 | – | 0.113
x2 = 0.967 | – | 0.073

CCCCCCCCCl [1-chlorooctane]
Conditions | mass density [kg/m3]
[1] | 868.98

CCCCCCCCCl [1-chlorooctane] + CN1CCCC1=O
[2]
Conditions | excess molar enthalpy [kJ/mol]
298.15 K, x2 = 0.073 | 0.096
298.15 K, x2 = 0.121 | 0.198
298.15 K, x2 = 0.217 | 0.371
298.15 K, x2 = 0.314 | 0.502
298.15 K, x2 = 0.411 | 0.591
298.15 K, x2 = 0.507 | 0.638
298.15 K, x2 = 0.604 | 0.644
298.15 K, x2 = 0.701 | 0.6
298.15 K, x2 = 0.798 | 0.5
298.15 K, x2 = 0.895 | 0.318
298.15 K, x2 = 0.943 | 0.177
308.15 K, x2 = 0.068 | 0.112
308.15 K, x2 = 0.116 | 0.223
308.15 K, x2 = 0.213 | 0.41
308.15 K, x2 = 0.309 | 0.551
308.15 K, x2 = 0.406 | 0.649
308.15 K, x2 = 0.504 | 0.699
308.15 K, x2 = 0.602 | 0.702
308.15 K, x2 = 0.7 | 0.654
308.15 K, x2 = 0.799 | 0.54
308.15 K, x2 = 0.898 | 0.339
308.15 K, x2 = 0.948 | 0.188
308.15 K, x2 = 0.968 | 0.11

CN1CCCC1=O [N-methylpyrrolidone]
Conditions | mass density [kg/m3]
[1] | 1028.55

— the NIST ThermoML archive (doi:10.1016/j.jct.2008.01.024)
